Test results taken from patent US9833497B2, “Human originated EGF domain proteins and use of the same” (CHENGDU SOURCEBIO LIMITED-LIABILITY COMPANY, priority 2013, dated 2017).

Columns and labels:
Type in all cases: cell-based
E. coli DH5α = test: Antibacterial activity: MIC and growth curve against E. coli DH5α in 96-well plate; conditions: minimal inhibitory concentration against E. coli DH5α; 96-well plate, 5×10^5 CFU/mL, 37° C., judged after 8 h
Outline: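 Log-phase DH5α (OD600 about 0.5, 37° C, 185 rpm in LB) was pelleted, resuspended in fresh LB and seeded at 5×10^5 CFU/mL with recombinant protein at 50, 25 and 12.5 μg/mL (two-fold series), in triplicate. Plates were shaken at 175 rpm, 37° C, and OD600 was read every 30 min. MIC was the lowest concentration with no growth.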

E. coli BL21 = test: MIC against Gram-negative bacteria: E. coli BL21
Outline: (§1)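 MIC = lowest concentration of recombinant protein showing no growth. Test proteins: purified human-derived EGF domain proteins, two-fold dilution series, three wells per concentration; inoculum 5×10^5 CFU/mL in LB; incubation 37° C with shaking at 175 rpm.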

Pseudomonas aeruginosa = test: MIC against Gram-negative bacteria: Pseudomonas aeruginosa
Outline: as §1

Klebsiella pneumonia = test: MIC against Gram-negative bacteria: Klebsiella pneumonia
Outline: as §1

Enterobacter cloacae = test: MIC against Gram-negative bacteria: Enterobacter cloacae
Outline: as §1

Aeromonas hydrophila = test: MIC against Gram-negative bacteria: Aeromonas hydrophila
Outline: as §1

Citrobacter diversus = test: MIC against Gram-negative bacteria: Citrobacter diversus
Outline: as §1

Moraxella catarrhalis = test: MIC against Gram-negative bacteria: Moraxella catarrhalis
Outline: as §1

Proteus mirabilis = test: MIC against Gram-negative bacteria: Proteus mirabilis
Outline: as §1

Proteus vulgaris = test: MIC against Gram-negative bacteria: Proteus vulgaris
Outline: as §1

Serratia marcescens = test: MIC against Gram-negative bacteria: Serratia marcescens
Outline: as §1

[1] = 96-well plate, 5×10^5 CFU/mL, 37° C., 10 h
[2] = E. coli BL21, 10 h cultivation at 37° C., 5×10^5 CFU/mL
[3] = P. aeruginosa, 10 h cultivation at 37° C., 5×10^5 CFU/mL
[4] = K. pneumonia, 10 h cultivation at 37° C., 5×10^5 CFU/mL
[5] = E. cloacae, 10 h cultivation at 37° C., 5×10^5 CFU/mL
[6] = A. hydrophila, 10 h cultivation at 37° C., 5×10^5 CFU/mL
[7] = C. diversus, 10 h cultivation at 37° C., 5×10^5 CFU/mL
[8] = M. catarrhalis, 10 h cultivation at 37° C., 5×10^5 CFU/mL
[9] = P. mirabilis, 10 h cultivation at 37° C., 5×10^5 CFU/mL
[10] = P. vulgaris, 10 h cultivation at 37° C., 5×10^5 CFU/mL
[11] = S. marcescens, 10 h cultivation at 37° C., 5×10^5 CFU/mL
[12] = E. coli BL21, 96-well plate, 5×10^5 CFU/mL, 37° C., 10 h
[13] = Pseudomonas aeruginosa, 96-well plate, 5×10^5 CFU/mL, 37° C., 10 h
[14] = Klebsiella pneumonia, 96-well plate, 5×10^5 CFU/mL, 37° C., 10 h
[15] = Enterobacter cloacae, 96-well plate, 5×10^5 CFU/mL, 37° C., 10 h
[16] = Aeromonas hydrophila, 96-well plate, 5×10^5 CFU/mL, 37° C., 10 h
[17] = Citrobacter diversus, 96-well plate, 5×10^5 CFU/mL, 37° C., 10 h
[18] = Moraxella catarrhalis, 96-well plate, 5×10^5 CFU/mL, 37° C., 10 h
[19] = Proteus mirabilis, 96-well plate, 5×10^5 CFU/mL, 37° C., 10 h
[20] = Proteus vulgaris, 96-well plate, 5×10^5 CFU/mL, 37° C., 10 h
[21] = Serratia marcescens, 96-well plate, 5×10^5 CFU/mL, 37° C., 10 h
[22] = 10 h cultivation at 37° C., 5×10^5 CFU/mL, two-fold serial dilution

PRT956 (NIDDCAFASCTPGSTCIDRVASFSCMCPEGKAGLLCH; listed as Homo sapiens)
25 µg/mL: MIC (Klebsiella pneumonia; K. pneumonia, 10 h cultivation at 37° C.) | MIC (Aeromonas hydrophila; A. hydrophila, 10 h cultivation at 37° C.) | MIC (Citrobacter diversus; C. diversus, 10 h cultivation at 37° C.) | MIC (Proteus mirabilis; P. mirabilis, 10 h cultivation at 37° C.) | MIC (Serratia marcescens; S. marcescens, 10 h cultivation at 37° C.)
12.5 µg/mL: MIC (E. coli DH5α) | MIC (E. coli BL21; E. coli BL21, 10 h cultivation at 37° C.) | MIC (Pseudomonas aeruginosa; P. aeruginosa, 10 h cultivation at 37° C.) | MIC (Enterobacter cloacae; E. cloacae, 10 h cultivation at 37° C.) | MIC (Moraxella catarrhalis; M. catarrhalis, 10 h cultivation at 37° C.)
50 µg/mL: MIC (Proteus vulgaris; P. vulgaris, 10 h cultivation at 37° C.)

PRT448 (SFRCQCEPGFQLGPNNRSCVDVNE; listed as Homo sapiens)
25 µg/mL: MIC against C. diversus (Citrobacter diversus; [1]) | MIC against P. mirabilis (Proteus mirabilis; [1])
100 µg/mL: MIC against P. aeruginosa (Pseudomonas aeruginosa; [1])
12.5 µg/mL: MIC (E. coli DH5α) | MIC against E. cloacae (Enterobacter cloacae; [1]) | MIC against M. catarrhalis (Moraxella catarrhalis; [1]) | MIC against S. marcescens (Serratia marcescens; [1])
50 µg/mL: MIC against E. coli BL21 (E. coli BL21; [1]) | MIC against K. pneumonia (Klebsiella pneumonia; [1]) | MIC against A. hydrophila (Aeromonas hydrophila; [1]) | MIC against P. vulgaris (Proteus vulgaris; [1])

PRT421 (DQDECLLLPGELCQHLCINTVGSYHCACFPGFSLQDDGRTCR; listed as Homo sapiens)
50 µg/mL: MIC (E. coli BL21; [2]) | MIC (Klebsiella pneumonia; [4]) | MIC (Aeromonas hydrophila; [6]) | MIC (Moraxella catarrhalis; [8])
25 µg/mL: MIC (Proteus mirabilis; [9]) | MIC (Serratia marcescens; [11])
12.5 µg/mL: MIC (E. coli DH5α) | MIC (Pseudomonas aeruginosa; [3]) | MIC (Enterobacter cloacae; [5]) | MIC (Citrobacter diversus; [7]) | MIC (Proteus vulgaris; [10])

PRT200 (NFSTCLSSKEGTICSGNGVCSNELKCVCNRHWIGSDCN; listed as Homo sapiens)
25 µg/mL: MIC (μg/mL) E. coli BL21 (E. coli BL21; [2]) | MIC (μg/mL) K. pneumonia (Klebsiella pneumonia; [4]) | MIC (μg/mL) A. hydrophila (Aeromonas hydrophila; [6]) | MIC (μg/mL) M. catarrhalis (Moraxella catarrhalis; [8])
50 µg/mL: MIC (μg/mL) P. aeruginosa (Pseudomonas aeruginosa; [3]) | MIC (μg/mL) C. diversus (Citrobacter diversus; [7]) | MIC (μg/mL) P. vulgaris (Proteus vulgaris; [10])
12.5 µg/mL: MIC (E. coli DH5α) | MIC (μg/mL) E. cloacae (Enterobacter cloacae; [5]) | MIC (μg/mL) P. mirabilis (Proteus mirabilis; [9]) | MIC (μg/mL) S. marcescens (Serratia marcescens; [11])

PRT1201 (DIDECALRTHTCWNDSACINLAGGFDCLCPSGPSCS; listed as Homo sapiens)
12.5 µg/mL: MIC (E. coli DH5α) | MIC against P. aeruginosa (Pseudomonas aeruginosa; [13]) | MIC against C. diversus (Citrobacter diversus; [17]) | MIC against P. vulgaris (Proteus vulgaris; [20])
25 µg/mL: MIC against K. pneumonia (Klebsiella pneumonia; [14]) | MIC against A. hydrophila (Aeromonas hydrophila; [16]) | MIC against P. mirabilis (Proteus mirabilis; [19]) | MIC against S. marcescens (Serratia marcescens; [21])
50 µg/mL: MIC against E. coli BL21 (E. coli BL21; [12]) | MIC against E. cloacae (Enterobacter cloacae; [15]) | MIC against M. catarrhalis (Moraxella catarrhalis; [18])

PRT1200 (DIDECSEGIIECHNHSRCVNLPGWYHCECRSGFHDDGTY; listed as Homo sapiens)
50 µg/mL: MIC against M. catarrhalis (Moraxella catarrhalis; [18]) | MIC against S. marcescens (Serratia marcescens; [21])
12.5 µg/mL: MIC (E. coli DH5α) | MIC against E. coli BL21 (E. coli BL21; [12]) | MIC against P. aeruginosa (Pseudomonas aeruginosa; [13]) | MIC against K. pneumonia (Klebsiella pneumonia; [14]) | MIC against C. diversus (Citrobacter diversus; [17]) | MIC against P. vulgaris (Proteus vulgaris; [20])
25 µg/mL: MIC against E. cloacae (Enterobacter cloacae; [15]) | MIC against A. hydrophila (Aeromonas hydrophila; [16]) | MIC against P. mirabilis (Proteus mirabilis; [19])

PRT27 (NACASGPCPPHADCRDLWQTFSCTCQPGYYGPGCV; listed as Homo sapiens)
25 µg/mL: MIC (μg/mL) E. coli BL21 (E. coli BL21; [12]) | MIC (μg/mL) K. pneumonia (Klebsiella pneumonia; [14]) | MIC (μg/mL) A. hydrophila (Aeromonas hydrophila; [16]) | MIC (μg/mL) P. mirabilis (Proteus mirabilis; [19])
100 µg/mL: MIC (μg/mL) S. marcescens (Serratia marcescens; [21])
12.5 µg/mL: MIC (E. coli DH5α) | MIC (μg/mL) E. cloacae (Enterobacter cloacae; [15]) | MIC (μg/mL) M. catarrhalis (Moraxella catarrhalis; [18])
50 µg/mL: MIC (μg/mL) P. aeruginosa (Pseudomonas aeruginosa; [13]) | MIC (μg/mL) C. diversus (Citrobacter diversus; [17]) | MIC (μg/mL) P. vulgaris (Proteus vulgaris; [20])

PRT227 (KGNNCRDSTLCPAYATCTNTVDSYYCACKQGFLSSNGQNHFKDPGVRCK; listed as Homo sapiens)
25 µg/mL: MIC (μg/mL) M. catarrhalis (Moraxella catarrhalis; [8]) | MIC (μg/mL) P. vulgaris (Proteus vulgaris; [10])
50 µg/mL: MIC (μg/mL) C. diversus (Citrobacter diversus; [7]) | MIC (μg/mL) S. marcescens (Serratia marcescens; [11])
12.5 µg/mL: MIC (E. coli DH5α) | MIC (μg/mL) E. coli BL21 (E. coli BL21; [2]) | MIC (μg/mL) P. aeruginosa (Pseudomonas aeruginosa; [3]) | MIC (μg/mL) K. pneumonia (Klebsiella pneumonia; [4]) | MIC (μg/mL) E. cloacae (Enterobacter cloacae; [5]) | MIC (μg/mL) A. hydrophila (Aeromonas hydrophila; [6]) | MIC (μg/mL) P. mirabilis (Proteus mirabilis; [9])

PRT30 (PCDCYPVGSTSRSCAPHSGQCPCRPGALGRQCNSCDSPF; listed as Homo sapiens)
50 µg/mL: MIC (μg/mL) E. coli BL21 (E. coli BL21; [12]) | MIC (μg/mL) E. cloacae (Enterobacter cloacae; [15]) | MIC (μg/mL) M. catarrhalis (Moraxella catarrhalis; [18])
12.5 µg/mL: MIC (μg/mL) P. aeruginosa (Pseudomonas aeruginosa; [13]) | MIC (μg/mL) A. hydrophila (Aeromonas hydrophila; [16]) | MIC (μg/mL) P. mirabilis (Proteus mirabilis; [19]) | MIC (μg/mL) S. marcescens (Serratia marcescens; [21])
25 µg/mL: MIC (E. coli DH5α) | MIC (μg/mL) K. pneumonia (Klebsiella pneumonia; [14]) | MIC (μg/mL) C. diversus (Citrobacter diversus; [17]) | MIC (μg/mL) P. vulgaris (Proteus vulgaris; [20])

PRT1250 (FGARCDRYCQCFRGRCHPVDGTCACEPGYRGKYCR; listed as Homo sapiens)
25 µg/mL: MIC against K. pneumonia (Klebsiella pneumonia; [14]) | MIC against P. mirabilis (Proteus mirabilis; [19]) | MIC against S. marcescens (Serratia marcescens; [21])
50 µg/mL: MIC against E. coli BL21 (E. coli BL21; [12]) | MIC against E. cloacae (Enterobacter cloacae; [15]) | MIC against C. diversus (Citrobacter diversus; [17]) | MIC against P. vulgaris (Proteus vulgaris; [20])
12.5 µg/mL: MIC (E. coli DH5α) | MIC against P. aeruginosa (Pseudomonas aeruginosa; [13]) | MIC against A. hydrophila (Aeromonas hydrophila; [16]) | MIC against M. catarrhalis (Moraxella catarrhalis; [18])

PRT832 (DVDECAAGLAQCAHGCLNTQGSFKCVCHAGYELGADGRQCY; listed as Homo sapiens)
50 µg/mL: MIC (E. coli DH5α)
25 µg/mL: MIC (μg/mL) E. cloacae (Enterobacter cloacae; [5]) | MIC (μg/mL) C. diversus (Citrobacter diversus; [7]) | MIC (μg/mL) P. vulgaris (Proteus vulgaris; [10])
12.5 µg/mL: MIC (μg/mL) E. coli BL21 (E. coli BL21; [2]) | MIC (μg/mL) P. aeruginosa (Pseudomonas aeruginosa; [3]) | MIC (μg/mL) K. pneumonia (Klebsiella pneumonia; [4]) | MIC (μg/mL) A. hydrophila (Aeromonas hydrophila; [6]) | MIC (μg/mL) M. catarrhalis (Moraxella catarrhalis; [8]) | MIC (μg/mL) P. mirabilis (Proteus mirabilis; [9]) | MIC (μg/mL) S. marcescens (Serratia marcescens; [11])

PRT1122 (DVDECLSDPCLHGGTCSDTVAGYICRCPETWGGRDCS; listed as Homo sapiens)
25 µg/mL: MIC A. hydrophila (Aeromonas hydrophila; [22])
50 µg/mL: MIC (E. coli DH5α) | MIC P. aeruginosa (Pseudomonas aeruginosa; [22]) | MIC E. cloacae (Enterobacter cloacae; [22]) | MIC M. catarrhalis (Moraxella catarrhalis; [22]) | MIC P. vulgaris (Proteus vulgaris; [22])
12.5 µg/mL: MIC E. coli BL21 (E. coli BL21; [22]) | MIC K. pneumonia (Klebsiella pneumonia; [22]) | MIC C. diversus (Citrobacter diversus; [22]) | MIC P. mirabilis (Proteus mirabilis; [22]) | MIC S. marcescens (Serratia marcescens; [22])

PRT569 (CDCDLGGALNNSCFAESGQCSCRPHMIGRQC; listed as Homo sapiens)
25 µg/mL: MIC (E. coli DH5α) | MIC against P. aeruginosa (Pseudomonas aeruginosa; [1]) | MIC against A. hydrophila (Aeromonas hydrophila; [1]) | MIC against M. catarrhalis (Moraxella catarrhalis; [1]) | MIC against P. vulgaris (Proteus vulgaris; [1])
12.5 µg/mL: MIC against E. coli BL21 (E. coli BL21; [1]) | MIC against K. pneumonia (Klebsiella pneumonia; [1]) | MIC against E. cloacae (Enterobacter cloacae; [1]) | MIC against P. mirabilis (Proteus mirabilis; [1]) | MIC against S. marcescens (Serratia marcescens; [1])
100 µg/mL: MIC against C. diversus (Citrobacter diversus; [1])
